Test results from patent US20230295152A1 (SENDA BIOSCIENCES, INC., priority 2019, published 2023).

What was measured:
hERG channels = target: T1, hERG channels (Homo sapiens, UniProt Q12809); assay: hERG Inhibition Assay, patch clamp in hERG stably expressed HEK 293 cell line; type: cell-based; conditions: read-out: hERG channel: IC50
T1 construct: host or cells: HEK 293
Experimental: hERG stably expressed HEK 293 cell line (Cat #K1236) was purchased from Invitrogen. The cells are cultured in 85% DMEM, 10% dialyzed FBS, 0.1 mM NEAA, 25 mM HEPES, 100 U/mL Penicillin-Streptomycin and 5 μg/mL Blasticidin and 400 μg/mL Geneticin. Cells are split using TrypLE™ Express about three times a week and maintained between ˜40% to ˜80% confluence. Before the assay, the cells were onto the coverslips at 5×10^5 cells/per 6 cm cell culture dish and induced with doxycycline at 1 μg/mL for 48 hours.
External solution (in mM): 132 NaCl, 4 KCl, 3 CaCl2), 0.5 MgCl2, 11.1 glucose, and 10 HEPES (pH adjusted to 7.35 with NaOH). Internal solution (in mM): 140 KCl, 2 MgCl2, 10 EGTA, 10 HEPES and 5 MgATP (pH adjusted to 7.35 with KOH). Working solution preparation for test compound: test compounds were initially prepared in DMSO with final concentration of 10 mM as stock solution. Stock solution of each compound was serial-diluted by ratio of 1:3 with DMSO to prepare additional 3 intermediate solutions including 3.33, 1.11 and 0.37 mM.
Before performing the hERG assay, the working solutions were prepared by dilution of 10, 3.33, 1.11, and 0.37 mM intermediate solutions in 1000 folds using extracellular solution, while 30 μM working solution was prepared by 333.333-folds dilution of 10 mM DMSO stock. so that the final concentration of working solution was 30, 10, 3.33, 1.11 and 0.37 μM. The final DMSO concentration in working solutions was maintained in range of 0.1-0.3% (v/v).
Experimental procedure: the coverslip was removed from the cell culture dish and placed it on the microscope stage in bath chamber. A desirable cell was located using the ×10 objective. The tip of the electrode was located under the microscope using the ×10 objective by focusing above the plane of the cells. Once the tip was in focus, the electrode was advanced downwards towards the cell using the coarse controls of the manipulator, while simultaneously moving the objective to keep the tip in focus. When directly over the cell, the fine controls of the manipulator were used to approach the surface of the cell in small steps, by using the ×40 objective. Gentle suction was applied through the side-port of the electrode holder to form a gigaohm seal.
Cfast was used to remove the capacity current that is in coincidence with the voltage step. The whole cell configuration was obtained by applying repetitive, brief, strong suction until the membrane patch has ruptured. membrane potential was set to −60 mV at this point to ensure that hERG channels were not open. The spikes of capacity current was then cancelled using the Cslow on the amplifier.
Holding potential was set to −90 mV for 500 ms; current was recorder at 20 kHz and filtered at 10 kHz. Leaking current was tested at −80 mV for 500 ms.
The hERG current was elicited by depolarizing at +30 mV for 4.8 seconds and then the voltage was taken back to −50 mV for 5.2 seconds to remove the inactivation and observe the deactivating tail current. The maximum amount of tail current size was used to determine hERG current amplitude. Current was recorded for 120 seconds to assess current stability. Only stable cells with recording parameters above threshold were proceeded with further drug administrations. Vehicle control was applied to the cells to establish the baseline. […] For dose response testing, 5 doses of test compound was applied to the cells cumulatively from low to high concentrations. In order to ensure the good performance of cultured cells and operations, the positive control, Dofetilide, with 5 doses was also used to test the same batch of cells.
The following criteria were used to determine data acceptability: initial seal resistance>1 GΩ; leak currents<50% of the control peak tail currents at any time; the peak tail amplitude>300 pA; membrane resistance Rm>500 MΩ; access resistance (Ra)<15 MΩ; apparent run-down of peak current<2.5% per min. […]

[1] = In vivo PK study in male Sprague Dawley rats; conditions: for AUC(0-inf): read-out: AUCInf Mean; for AUC(0-t): read-out: AUCLast Mean
Experimental: (§1) The studies were conducted in male Sprague Dawley rats, three rats per group, or male CD1 mice, three mice per group. Compounds were dosed 1.0 mg/Kg i.v. (vehicle ethanol: % PEG400 in deionized water, in proportions suitable for dosing a clear solution) and 3.0 mg/kg or 10 mg/kg p.o. (vehicle: 1% methyl cellulose: 1,500 cP in DI water (w/v)). A11 animals had free access to food and water. Rat i.v. PK time points: Plasma: 0.083, 0.25, 0.5, 1, 2, 4, 8 and 24 h; Rat p.o. PK time points: Plasma: 0.25, 0.5, 1, 2, 4, 8 and 24 h. Mouse i.v. PK time points: Plasma: 0.083, 0.25, 0.5, 1, 2, 4, 8, 24, and 48 h; Mouse p.o. PK time points: Plasma: 0.25, 0.5, 1, 2, 4, 8, 24, and 48 h. Concentrations of compound in the plasma samples were analyzed using a LC-MS/MS method. WinNonlin (Phoenix™, version 6.1) or other similar software was used for pharmacokinetic calculations.

[2] = In vivo PK study in male CD1 mice; conditions: for AUC(0-t): read-out: AUCLast Mean
Experimental: as §1

[3] = male, Sprague Dawley, rat, plasma, rats, 1 mg/kg IV
[4] = male, Sprague Dawley, rat, plasma, rats, 1 mg/kg IV, read-out: T1/2 Mean (converted)
[5] = male, Sprague Dawley, rat, plasma, rats, PO, dosage of 3 mg/kg
[6] = male, Sprague Dawley, rat, plasma, rats, PO, dosage of 3 mg/kg, read-out: Bioavailability
[7] = male, CD1, mouse, plasma, mice, 1 mg/kg IV
[8] = male, CD1, mouse, plasma, mice, 1 mg/kg IV, read-out: T1/2 Mean (converted)
[9] = male, CD1, mouse, plasma, mice, 10 mg/kg PO
[10] = male, CD1, mouse, plasma, mice, 10 mg/kg PO, read-out: Bioavailability
[11] = male, CD1, mouse, plasma, mice, 10 mg/kg PO, read-out: T1/2 Mean (converted)
[12] = male, Sprague Dawley, rat, plasma, rats, PO, dosage of 3 mg/kg, read-out: T1/2 Mean (converted)
[13] = male, Sprague Dawley, rat, plasma, rats, PO, dosage of 10 mg/kg

T1 sequence (Q12809 whole entry): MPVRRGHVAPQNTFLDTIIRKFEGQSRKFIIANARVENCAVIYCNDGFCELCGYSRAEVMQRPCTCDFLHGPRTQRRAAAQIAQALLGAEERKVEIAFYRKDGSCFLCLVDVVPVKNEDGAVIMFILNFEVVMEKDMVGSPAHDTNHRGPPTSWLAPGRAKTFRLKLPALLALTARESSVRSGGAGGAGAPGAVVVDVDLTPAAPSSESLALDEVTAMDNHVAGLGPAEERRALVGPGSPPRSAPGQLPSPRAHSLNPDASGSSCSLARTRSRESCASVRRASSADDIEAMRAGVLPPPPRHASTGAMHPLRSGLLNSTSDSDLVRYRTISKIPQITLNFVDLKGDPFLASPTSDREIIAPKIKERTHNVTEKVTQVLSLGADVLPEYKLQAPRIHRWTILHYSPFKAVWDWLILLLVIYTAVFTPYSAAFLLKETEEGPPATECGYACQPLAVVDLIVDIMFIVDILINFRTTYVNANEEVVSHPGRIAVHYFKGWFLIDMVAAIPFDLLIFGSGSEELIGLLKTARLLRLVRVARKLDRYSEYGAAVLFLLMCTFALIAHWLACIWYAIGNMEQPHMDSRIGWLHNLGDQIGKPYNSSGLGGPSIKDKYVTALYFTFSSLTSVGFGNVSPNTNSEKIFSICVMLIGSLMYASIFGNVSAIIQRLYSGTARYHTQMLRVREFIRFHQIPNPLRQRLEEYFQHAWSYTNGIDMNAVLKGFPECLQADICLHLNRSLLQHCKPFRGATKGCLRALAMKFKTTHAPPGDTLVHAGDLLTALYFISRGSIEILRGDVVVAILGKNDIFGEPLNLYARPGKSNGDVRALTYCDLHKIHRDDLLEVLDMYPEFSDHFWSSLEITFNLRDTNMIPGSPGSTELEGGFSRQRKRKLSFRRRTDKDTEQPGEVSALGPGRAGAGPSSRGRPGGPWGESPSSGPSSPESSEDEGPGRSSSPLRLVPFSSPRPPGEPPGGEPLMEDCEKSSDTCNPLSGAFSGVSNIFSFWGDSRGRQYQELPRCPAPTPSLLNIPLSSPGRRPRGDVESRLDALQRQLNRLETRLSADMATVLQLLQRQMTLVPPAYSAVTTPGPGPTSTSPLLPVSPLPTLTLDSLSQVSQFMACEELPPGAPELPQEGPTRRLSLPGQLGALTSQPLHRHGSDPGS

Structure (SMILES)	IC50 (hERG channels)	C0 [1, 3]	AUC(0-inf) [1, 3]	AUC(0-t) [1, 3]	half-life [1, 4]	Cmax [1, 5]	Tmax [1, 5]	AUC(0-t) [1, 5]	bioavailability [1, 6]	CI Mean ([1]; rats, 1 mg/kg IV)	C0 [2, 7]	AUC(0-t) [2, 7]	half-life [2, 8]	Cmax [2, 9]	AUC(0-t) [2, 9]	bioavailability [2, 10]	CI Mean ([2]; mice, 1 mg/kg IV)	further results
C[C@@H](CO)n1cnc2c(-c3cccnc3)nc(-c3ccc(C4CC4)nc3)cc2c1=O [Compound 74]	4.84 µM	–	–	–	–	–	–	–	–	–	–	–	–	–	–	–	–	–
C[C@H](n1cnc2c(-c3cnn(C)c3)nc(-c3ccc(Cl)cc3)cc2c1=O)C(C)(C)O [Compound 30]	> 30 µM	311 ng/mL	2030 ng·h/mL	2010 ng·h/mL	3.62 h	276 ng/mL	3.33 h	3250 ng·h/mL	53.9%	143 mL/min/kg	457 ng/mL	6380 ng·h/mL	8.6 h	2160 ng/mL	72800 ng·h/mL	114%	43.3 mL/min/kg	Tmax [2, 9]: 8 h
CC(C)(O)Cn1cnc2c(-c3cccnc3)nc(-c3ccc(Cl)cc3)cc2c1=O [Compound 18]	5.28 µM	–	–	–	–	–	–	–	–	–	333 ng/mL	6770 ng·h/mL	20.7 h	1310 ng/mL	45800 ng·h/mL	67.6%	33.7 mL/min/kg	Tmax [2, 9]: 6.67 h; half-life [2, 11]: 23.4 h
CC(C)(O)Cn1cnc2c(-c3cccnc3)nc(-c3ccc(C(F)(F)F)cc3)cc2c1=O [Compound 16]	4.31 µM	–	–	–	–	–	–	–	–	–	–	–	–	–	–	–	–	–
O=c1c2cc(-c3ccc(Cl)cc3)nc(-c3cccnc3)c2ncn1[C@H]1COC[C@@H]1O [Compound 125, 6-(4-chlorophenyl)-3-((3S,4R)-4-hydroxytetrahydrofuran-3-yl)-8-(pyridin-3-yl)pyrido[3,4-d]pyrimidin-4(3H)-one]	7.67 µM	–	–	–	–	–	–	–	–	–	–	–	–	–	–	–	–	–
C[C@@H](CO)n1cnc2c(-c3cccnc3)nc(-c3ccc(C(F)(F)F)cn3)cc2c1=O [Compound 46, (S)-3-(1-hydroxypropan-2-yl)-8-(pyridin-3-yl)-6-(5-(trifluoromethyl)pyridin-2-yl)pyrido[3,4-d]pyrimidin-4(3H)-one]	8.63 µM	301 ng/mL	2490 ng·h/mL	2350 ng·h/mL	5.65 h	462 ng/mL	3.33 h	6280 ng·h/mL	89%	112 mL/min/kg	470 ng/mL	8400 ng·h/mL	15.7 h	2370 ng/mL	67700 ng·h/mL	80.6%	29.3 mL/min/kg	Rat CL (% Qh) ([1]; in vivo DMPK profile, rat): 9 % Qh; clearance ([1]; male, Sprague Dawley, plasma, intravenous, 1 mg/kg, in vivo DMPK profile, rat, read-out: Rat CL): 6.7 mL/min/kg; half-life ([1]; male, Sprague Dawley, plasma, intravenous, 1 mg/kg, in vivo DMPK profile, rat, read-out: Rat T1/2 (converted)): 5.6 h; Vd ([1]; male, Sprague Dawley, plasma, intravenous, 1 mg/kg, in vivo DMPK profile, rat, read-out: Rat Vss): 3.1 L/kg; bioavailability ([1]; male, Sprague Dawley, plasma, oral, 3 mg/kg, in vivo DMPK profile, rat, read-out: Rat % F): 89%; half-life [1, 12]: 5.73 h; Mouse CL (% Qh) ([2]; in vivo DMPK profile, mouse): 2 % Qh; half-life [2, 11]: 8 h; clearance ([2]; male, CD1, plasma, intravenous, 1 mg/kg, in vivo DMPK profile, mouse, read-out: Mouse CL): 1.8 mL/min/kg; half-life ([2]; male, CD1, plasma, intravenous, 1 mg/kg, in vivo DMPK profile, mouse, read-out: Mouse T1/2 (converted)): 15.7 h; Vd ([2]; male, CD1, plasma, intravenous, 1 mg/kg, in vivo DMPK profile, mouse, read-out: Mouse Vss): 2.3 L/kg; bioavailability ([2]; male, CD1, plasma, oral, 10 mg/kg, in vivo DMPK profile, mouse, read-out: Mouse % F): 80.6%
CC(C)(O)Cn1cnc2c(-n3ccnc3)nc(-c3ccc(C(F)(F)F)cn3)cc2c1=O [Compound 160, 3-(2-hydroxy-2-methylpropyl)-8-(1H-imidazol-1-yl)-6-(5-(trifluoromethyl)pyridin-2-yl)pyrido[3,4-d]pyrimidin-4(3H)-one]	11.5 µM	–	–	–	–	–	–	–	–	–	–	–	–	–	–	–	–	–
C[C@@H](CO)n1cnc2c(-c3cccnc3)nc(-c3ccc(C(F)(F)F)nc3)cc2c1=O [Compound 12]	> 10 µM	–	–	–	–	–	–	–	–	–	–	–	–	–	–	–	–	–
C[C@@H](CO)n1cnc2c(-c3cccc(F)c3)nc(-c3ccc(Cl)cc3)cc2c1=O [Compound 7]	> 30 µM	212 ng/mL	1000 ng·h/mL	659 ng·h/mL	5.31 h	224 ng/mL	3.33 h	2400 ng·h/mL	110%	295 mL/min/kg	–	–	–	–	–	–	–	Cmax [1, 13]: 610 ng/mL; Tmax [1, 13]: 3.33 h; AUC(0-t) [1, 13]: 7820 ng·h/mL; bioavailability ([1]; male, Sprague Dawley, rat, plasma, rats, PO, dosage of 10 mg/kg, read-out: Bioavailability): 105%
C[C@@H](CO)n1cnc2c(-c3cnn(C)c3)nc(-c3ccc(C(F)(F)F)nc3)cc2c1=O [Compound 68]	> 30 µM	–	–	–	–	–	–	–	–	–	–	–	–	–	–	–	–	–
O=c1c2cc(-c3ccc(C(F)(F)F)nc3)nc(-c3cccnc3)c2ncn1[C@@H]1COC[C@H]1O [Compound 79]	> 30 µM	663 ng/mL	1220 ng·h/mL	1200 ng·h/mL	1.38 h	508 ng/mL	1 h	2270 ng·h/mL	65.9%	228 mL/min/kg	–	–	–	–	–	–	–	AUC(0-inf) [1, 5]: 2420 ng·h/mL; half-life [1, 12]: 2.53 h
Cc1ccc(-c2cc3c(=O)n([C@@H](C)CO)cnc3c(-c3cccnc3)n2)cc1 [Compound 17, (S)-3-(1-hydroxypropan-2-yl)-8-(pyridin-3-yl)-6-(p-tolyl)pyrido[3,4-d]pyrimidin-4(3H)-one]	–	–	–	–	–	–	–	–	–	–	601 ng/mL	231 ng·h/mL	0.504 h	349 ng/mL	497 ng·h/mL	21.6%	1200 mL/min/kg	Tmax [2, 9]: 0.417 h; AUC(0-inf) ([2]; male, CD1, mouse, plasma, mice, 10 mg/kg PO, read-out: AUCInf Mean): 519 ng·h/mL; half-life [2, 11]: 1.15 h
C[C@@H](CO)n1cnc2c(-c3cnn(C)c3)nc(-c3ccc(Cl)cc3)cc2c1=O [Compound 27]	> 10 µM	–	–	–	–	–	–	–	–	–	–	–	–	–	–	–	–	–
